Assay results taken from patent US20160354312A1, “FORMULATIONS OF JASMONATES AND NANOCARRIERS OR MICROCARRIERS” (Nanocare Technologies, Inc., priority 2008, published 2016).

Experiment: GC/MS analysis of incorporation of methyl jasmonate in nanocarriers
Type: physicochemical
Experimental: The class of dendrimers used was PAMAM. […] The experimental data was obtained using a GC with a column temperature of 50° C., the injection temperature of 250° C., Flow control mode linear, total flow 50.0 mL/min., and column flow of 1.70 mL/min. The percentage relative to the incorporation of methyl jasmonate inside β-CD was 98-99% and for dendrimer PAMAM it was more than 95%. Comparing peak 1 with 2, peak 2 is methyl Jasmonate alone and peak 1 is the inclusion compounds formed. In both cases peak 1 is clearly different and proves the molecular association.

percentage relative to the incorporation of methyl jasmonate (dendrimer PAMAM): more than 95%
percentage relative to the incorporation of methyl jasmonate (inside β-CD): 98-99%
Compound: CC/C=C\CC1C(=O)CCC1CC(=O)OC (centres unmarked) [methyl jasmonate]
